Test results as given in US20220105053A1, “PHARMACEUTICAL COMPOSITION FOR PREVENTION OR TREATMENT OF ACIDOSIS” (HAIM BIO CO., LTD., priority 2018, published 2022).

Tested on: A549 cancer cells
Experiment: Lactic acid concentration-decreasing effect in A549 cell culture (lactate assay, luminescence, normalised to cell number)
Assay type: cell-based, human
Conditions: 50 μM candidate substance, 24 hours, compared with the positive control (50 μM sodium oxamate), average of 3 experiments
Method: To this end, first, A549 cancer cells (adenocarcinomic human alveolar basal epithelial cells, Cat #CCL-185) obtained from the American Type Culture Collection (ATCC) were cultured in RPMI 1640 culture medium containing 10% fetal bovine serum and 1% antibiotic-antimycotic agent under an environment at 37° C. and 5% CO2, and passages were performed every 3 days. Lactic acid is produced in large amounts when glycolysis is activated in hypoxia. Cancer cells, which are densely packed with cells, are very active in energy-consuming activities, and thus are known to produce lactic acid in large amounts.
The cells were seeded in 24-well plates at a concentration of 3×10^5 cells/well, and incubation was performed overnight. Then, each plate was treated with each of the candidate substances (at a concentration of 50 μM) as shown in Table 1 which had been dissolved in dimethyl sulfoxide (DMSO). Incubation was further performed for 24 hours. For the negative control for the candidate substances, no treatment was performed; and for the positive control, treatment with sodium oxamate, which is conventionally known as a therapeutic agent for lactic acidosis, was performed at the same concentration (50 μM) or the […] higher concentration (50 mM). Subsequently, 50 μl of the cell culture solution obtained by being diluted with Dulbecco's Phosphate-Buffered Saline (DPBS), and 50 μl of the lactate assay reaction buffer (Promega, Madison, Wis., USA) were mixed and the mixture was added in a 96-well plate. Reaction was allowed to proceed at room temperature for 1 hour. Then, luminescence was measured with a spectrophotometer (Synergy HTX Multi-Reader, BioTek). At the same time, the number of cells in each sample was measured with a cell viability analysis kit (Cell Counting Kit-8), and calculation was performed so that the lactic acid measurement value in each sample could be compared with that in the negative control for the same number of cells.

| SMILES | lactic acid concentration-decreasing effect |
| --- | --- |
| Nc1c(O)cccc1C(=O)CC(N)C(=O)O (racemic) [3-hydroxy-DL-kynurenine, 3-Hydroxy-DL-kynurenine] | about 20% |
| C=C(OP(=O)([O-])O)C(=O)O.O.[Na+] [Phospho(enol)pyruvic acid monosodium salt hydrate] | about 15% |
| CCN(CC)c1ccc(C=O)cc1 [diethylaminobenzaldehyde, Diethylaminobenzaldehyde] | about 20% |
| N.N.[Cl][Pt][Cl] [cis-diamminedichloridoplatinum, Cis-diamminedichloridoplatinum] | about 15% |
